# Reference: patent US4820712A, “Sparsomycin (SC-RS) compounds having antitumor activity, a process for their preparation and pharmaceutical compositions containing sparsomycin (SC-RS) compounds” (priority 1986, dated 1989)
# Read-outs that look alike come from different tables or passages of the source.
# Assays:
# [1] = test system: L1210 leukemia; assay: in vivo antitumor assay, L1210 leukemia; design: species or system CDF1 mice
# Description: (§1) The antitumor activity of the present compounds has also been investigated by in vivo assays. In the assays, mice were treated for nine days in succession, starting at 24 hours after the time of tumor implant.
# (§2) The results are shown in tables 4, 5 and 6 and represent the number of tumor-bearing mice surviving after administration of optimal doses of the test compound, expressed as a treatment/control (T/C×100%) ratio. In the tables, information is provided with respect to the sex, dose, weight loss of treated animals compared to control animals, and the number of survivors in groups of 6 mice.
# [2] = acute toxicity LD50; format: in vivo, mice; conditions: mouse, in vivo, ip, daily x9 injections, mice; 95% confidence interval given; read-out: LD 50 in mg/kg/inj i.p. in mice
# Text: It appears therefrom that ala-sparsomycin is about 9× less toxic than sparsomycin.
# [3] = test system: P388 leukemia; assay: in vivo antitumor assay, P388 leukemia; design: species or system CDF1 mice; conditions: for T/C (survival, treatment/control x 100%): ip daily x9, optimal dose mg/kg: sparsomycin 0.125, n-octyl 22.5, benzyl 2.0, 2e 20.0
# Description: as §1, §2
# [4] = test system: Leukemia L 1210 cells; assay: in vitro clonogenic L1210 assay (inhibition of colony formation in soft agar); format: cell-based; conditions: Mus musculus, L1210, 72 h, read-out: ID50 (dose giving 50% inhibition of L1210 colony formation)
# Description: The in vitro clonogenic assay was effected in Leukemia L 1210 cells in soft agar medium (0.3%). […] In the analysis, the inhibition of the L 1210 colony formation by sparsomycin and derivatives thereof is determined for various concentrations, and the dose giving 50% inhibition of the colony formation, as compared with non-treated control cells is calculated (ID50).
# From a suspension culture one hundred L 1210 cells are plated out in 35 mm culture dishes (Falcon) containing 1 ml soft agar culture medium and the compound to be investigated in suitable concentrations. The soft agar culture medium consists of Dulbecco's medium supplemented with 20% horse serum, 60 μmole 2-mercaptoethanol, 20 mg/ml L-asparagine, 75 mg/ml DEAE dextran (molecular weight 2×10^6) and 0.3% bacto agar (Difco). The culture dishes were incubated at 37° C. in an atmosphere of 10% CO2 in humidified air for 3 days. After this period of continuous exposure to the medicament the colonies were counted and dose-effect curves made. From these curves, the medicament dose is calculated which causes 50% inhibition of the colony formation as compared with non-treated control cells.
# [5] = biological target: ribosomes from S. cerevisiae Y166 (peptidyl transferase activity); assay: polyphenylalanine synthesis assay, S. cerevisiae ribosomes; format: biochemical; conditions: concentration giving 50% inhibition relative to control; 30° C., 30 min; read-out: ED50 polyPhe synthesis S. cerevisiae
# Description: (§3) The peptidyl transferase activity was measured by the polyphenylalanine synthesis assay (Nirenberg and Matthei, Proc. Natl. Acad. Sci. USA 47 (1961) 1588), the fragment reaction (Monro, Methods Enzymol. 20 (1971) 472) and the puromycin reaction. In all the in vitro tests, i.e. polyPhe synthesis, fragment reaction and puromycin reaction, ribosomes from E. coli MRE600 and S. cerevisiae Y166 were used. The reaction mixture for polyphenylalanine synthesis was slightly different for E. coli and S. cerevisiae.
# S. cerevisiae: The test was carried out as indicated above for E. coli. The phosphoenol pyruvate and pyruvate kinase were, however, replaced by creatine phosphate (20 mM) and creatine phosphokinase (50 μg/ml). The incubation was performed at 30° C. for 30 min and the samples were processed as described above. Under these conditions the control samples polymerized 5-14 and 3-8 molecules of phenylalanine per ribosome derived from E. coli and S. cerevisiae, respectively. Ribosomes and supernatant factors from E. coli and S. cerevisiae were prepared according to standard procedures, described by Staehelin and Maglott, Methods Enzymol. 20 (1971) 449, and by Sanchez-Madrid et al, Eur. J. Biochem. 98 (1979) 409.
# (§4) The concentration of sparsomycin or an analog giving 50% inhibition of the protein synthesis relative to the control is given in ED50.
# [6] = test system: ribosomes from E. coli MRE600 (peptidyl transferase activity); assay: polyphenylalanine synthesis assay, E. coli ribosomes; format: biochemical; conditions: concentration giving 50% inhibition relative to control; 37° C., 30 min; read-out: ED50 polyPhe synthesis E. coli
# Description: as §3
# E. coli: The reaction mixture (50 μl) contained 50 mM Tris-HCl pH 7.6, 15 mM MgCl2, 90 mM KCl, 15 mM β-mercapto ethanol, 1 mM GTP, 10 mM ATP, 0.2 mg/ml of polyuridylic acid, 1.5 mg/ml tRNA, 0.3 μM of ribosomes, 2.5 mg/ml of phosphoenol pyruvate, 20 μg/ml of pyruvate kinase, the required concentration of sparsomycin or its analogue and 5 μl of supernatant fraction S-100. Subsequently, [^3 H]phenylalanine, 30 μM (about 60 cpm/pmol) was added to start the reaction. Incubation was at 37° C. for 30 min. The reaction was stopped by the addition of 1 ml of 10% TCA and the samples were filtered through glass fiber filters. The filters were washed with 10 ml of cold 10% TCA, dried and counted for radioactivity.
# as §4
# [7] = test system: ribosomes from E. coli MRE600 (peptidyl transferase activity); assay: puromycin reaction, E. coli ribosomes; format: biochemical; conditions: 50% inhibition relative to control; read-out: ED50 Puromycin reaction E. coli
# Description: as §3
# The puromycin reaction was carried out in 25 μl of 30 mM KCl, 50 mM NH4 Cl, 30 mM Tris-HCl pH 7.8, 20 mM MgCl2, 10 pmol of ribosomes, 100 μg/ml of poly(U) and 15 pmol of N-acetyl-[^3 H]Phe-tRNA. The reaction mixture was incubated for 30 min at 37° C. and then 1 μl of 20 mM puromycin was added and incubation was followed for 5 more min. To the samples 250 μl of 0.1M sodium carbonate and 0.7 ml of ethyl acetate were added, shaken for 1 min, centrifuged to separate the phases and 0.5 ml of the upper organic phase taken for estimating the radioactivity.
# as §4
# [8] = test system: E. coli MRE600; assay: inhibition of bacterial growth; format: cell-based
# Description: Inhibition of bacterial growth was tested in solid as well as in liquid medium. For the test on agar plates, petri dishes containing 15 ml of LB medium (10 g/l bactotryptone, 5 g/l yeast extract and 5 g/l NaCl) were covered with 5 ml of the same medium--kept melted at 40° C.--containing 40 μl of a culture of the required bacterium at approximately an A550 of 2. After solidification, 3 mm filter disks containing 4 μl of a 10 mM solution of the antibiotic in 50EtOH/DMSO were placed on the surface of the agar and the plates were incubated at 37° C. for 24 h. For the test in liquid medium, E. coli MRE600 was grown in LB medium supplemented with 0.2% of glucose to exponential phase (A560 =0.1) and distributed in 1 ml aliquots in tubes containing the required amount of antibiotic. The tubes were incubated at 37° C. for 4 h, subsequently diluted with 3 ml of 0.1% of sodium azide to stop growth and the absorption at 550 nm was measured. The absorption of the medium without addition of antibiotic was considered as 100% growth.
# [9] = biological target: ribosomes from S. cerevisiae Y166 (peptidyl transferase activity); assay: fragment reaction, S. cerevisiae ribosomes; format: biochemical; conditions: 50% inhibition relative to control; 0° C., 30 min, 33% methanol; read-out: ED50 Fragment reaction S. cerevisiae
# Description: as §3
# (§5) The fragment reaction was carried out in 150 μl of 33 mM Tris-HCl pH 7.4, 270 mM KCl, 13 mM magnesium acetate containing 1 mg/ml of ribosomes, 2 mM puromycin, 1 pmol of N-acetyl-[^3 H]Leu-ACCAC(U), the required concentration of sparsomycin or its analogue and 33% methanol. The reaction was initiated by the addition of the alcohol and allowed to proceed at 0° C. for 30 min, and was then stopped by the addition of 100 μl of 0.3M sodium acetate pH 5.5 saturated with MgSO4. The samples were extracted with 1.5 ml of ethyl acetate and 1 ml of the organic phase was checked for radioactivity. The 3' terminal pentanucleotide N-acetyl-[^3 H]Leu-ACCAC(U) was prepared from N-acetyl-[^3 H]Leu-tRNA by ribonuclease T1 as described by Monro.
# as §4
# [10] = test system: ribosomes from E. coli MRE600 (peptidyl transferase activity); assay: fragment reaction, E. coli ribosomes; format: biochemical; conditions: 50% inhibition relative to control; 0° C., 30 min, 33% methanol; read-out: ED50 Fragment reaction E. coli
# Description: as §3, §5, §4
# [11] = test system: RC (renal cell) carcinoma; assay: in vivo antitumor assay, RC (renal cell) carcinoma; design: species or system CDF1 mice; conditions: for T/C (survival, treatment/control x 100%): ip daily x9, optimal dose mg/kg: sparsomycin 0.125, n-octyl 20.0, benzyl 2.7, 2a 1.1
# Description: as §1, §2
# [12] = solubility in water; format: physicochemical
# [13] = female mice, ip daily x9, optimal dose mg/kg: sparsomycin 0.25, n-octyl 12.0, benzyl 10.0, 2a 2.5, 2e 13.3
# [14] = female mice, ip daily x9, dose mg/kg: sparsomycin 0.25, n-octyl 12.0, benzyl 10.0, 2a 2.5, 2e 13.3
# [15] = male mice, ip daily x9, dose mg/kg: sparsomycin 0.125, n-octyl 22.5, benzyl 2.0, 2e 20.0
# [16] = soft agar 0.3%, 3 days continuous exposure, vs non-treated control cells
# [17] = Escherichia coli, MRE600, 4 h, read-out: Growth inhibition E. coli MRE600 ED50
# [18] = male mice, ip daily x9, dose mg/kg: sparsomycin 0.125, n-octyl 20.0, benzyl 2.7, 2a 1.1
# [19] = male mice, ip daily x9, optimal dose mg/kg: sparsomycin 0.125, n-octyl 20.0, benzyl 4.0, 2a 1.7
# [20] = male mice, ip daily x9, dose mg/kg: sparsomycin 0.125, n-octyl 20.0, benzyl 4.0, 2a 1.7
Compound,"T/C (survival, treatment/control x 100%) [1, 13]","cures (survivors in groups of 6 mice) [1, 14]","weight loss (T - C) ([1]; mouse, in vivo, ip)",LD50 [2],"T/C (survival, treatment/control x 100%) ([3]; male mice)","cures (survivors in groups of 6 mice) [3, 15]","weight loss (T - C) ([3]; mouse, in vivo, ip)","IC50 [4, 16]",IC50 [5],IC50 [6],IC50 [4],IC50 [7],"IC50 [8, 17]",IC50 [9],IC50 [10],"T/C (survival, treatment/control x 100%) ([11]; male mice)","cures (survivors in groups of 6 mice) [11, 18]","T/C (survival, treatment/control x 100%) [1, 19]","cures (survivors in groups of 6 mice) [1, 20]",solubility [12],further results
"CCCCSC[S@+]([O-])C[C@H](C)NC(=O)/C=C/c1c(C)[nH]c(=O)[nH]c1=O [2e, (Sc Rs)-1-(n-butylthiomethyl)sulfinyl-2-[β-(6-methyl-5-uracilyl)acrylamido]-propane]",161%,0/6,-0.7 g,> 16 mg/kg,146%,0/6,-3.2 g,–,–,–,–,–,–,–,–,–,–,–,–,–,–
"CCCCCCCCSC[S@+]([O-])C[C@H](C)NC(=O)/C=C/c1c(C)[nH]c(=O)[nH]c1=O [2f, (Sc Rs)-1-(n-octylthiomethyl)sulfinyl-2-[β-(6-methyl-5-uracilyl)acrylamido]-propane]",–,–,–,–,–,–,–,180 nM,–,–,–,–,–,–,–,–,–,–,–,–,–
"CSC[S@@+]([O-])C[C@H](C)NC(=O)/C=C/c1c(C)[nH]c(=O)[nH]c1=O [3a, (Sc Ss)-1-(methylthiomethyl)sulfinyl-2-[β-(6-methyl-5-uracilyl)acrylamido]-propane]",–,–,–,–,–,–,–,–,143000 nM,283000 nM,550 nM,2700 nM,44000 nM,68000 nM,55000 nM,–,–,–,–,–,–
Cc1[nH]c(=O)[nH]c(=O)c1/C=C/C(=O)N[C@@H](CO)C[S@@+]([O-])CSCc1ccccc1 [benzyl-sparsomycin],217%,0/6,–,5 mg/kg,133%,0/6,–,–,600 nM,–,110 nM,130 nM,1000 nM,2600 nM,7600 nM,158%,0/6,162%,0/6,1500 µg/mL,"weight loss (T - C) [11, 18]: -1.8 g; weight loss (T - C) [1, 14]: -1.6 g; weight loss (T - C) ([1]; male mice, ip daily x9 from 24 h after implant, dose mg/kg: sparsomycin 0.125, n-octyl 20.0, benzyl 4.0, 2a 1.7): -1.8 g; weight loss (T - C) [3, 15]: -2.2 g"
CCCCCCCCSC[S@+]([O-])C[C@H](CO)NC(=O)/C=C/c1c(C)[nH]c(=O)[nH]c1=O [n-octyl-sparsomycin],153%,0/6,-1.9 g,29.5 mg/kg,150%,0/6,-1.7 g,100 nM,1300 nM,1600 nM,–,250 nM,–,300000 nM,60000 nM,179%,0/6,152%,0/6,~200 µg/mL,"weight loss (T - C) ([11]; mouse, in vivo, ip): -1.6 g; IC50 ([8]; Escherichia coli, MRE600, 4 h; read-out: Growth inhibition E. coli MRE600 ED50): 2500 nM"
